In publication PMC8241751, “Influence of the Dabcyl group on the cellular uptake of cationic peptides: short oligoarginines as efficient cell-penetrating peptides” (Amino Acids, 2021):
Where a SMILES comes first, the peptide text is derived from it. The star is where a group is joined. 5FAM = O=C1OC2(c3ccc(O)cc3Oc3cc(O)ccc32)c2ccc(C(=O)*)cc21; X1 = CN(C)c1ccc(/N=N/c2ccc(C(=O)*)cc2)cc1

What was measured:
CHO-K1 cells [1] = test: In vitro cytotoxicity assay (CCK-8); format: cell-based, Chinese Hamster; details: different concentrations (0-20 µM), 1 h, 37 °C
Description: Cytotoxicity was determined with the Cell Counting Kit 8 (CCK-8) from Dojindo Molecular Technologies using CHO-K1 cells. This colorimetric assay allows to measure the viability of cells. 96-well plates were inoculated with 100 μL/well of a suspension of cells (2 × 10^4 cells/well). […] After washing, the cells were incubated with 100 μL of 10% CCK-8 in DMEM for 3 h and the absorbance was measured at λ= 450 nm with a microplate reader (Polarstar Optima). Controls corresponded to untreated cells with DMEM (negative control, 100% viability) and cells treated with 0.1% of Triton X-100 (positive control, 0% viability).

CHO-K1 cells [2] = test: Relative quantification of total internalised peptide by flow cytometry; details: CHO-K1, 1 h, DMEM-F12, internalisation ratio by flow cytometry, intact cells, 20.000 cells
Description: After incubation and washing the cells with HBSS, 500 μL 0.05% trypsin/EDTA 0.05% (37 °C) or 500 µL pronase 0.05% in 100 mM Tris-buffer (4 °C) was added for 5 min to hydrolyze the remaining extracellular peptide, the membrane-bound peptide and to detach cells. After addition of 100 µL enzyme inhibitors (complete mini at 4 °C (Roche) or trypsin inhibitor (soybean inhibitor 5 mg/mL) at 37 °C mixed with 100 μL bovine serum albumin (1 mg/mL). Cells were transferred into a microtube, centrifuged, washed with 1 mL 50 mM Tris-buffer pH 7.4, 0.1% BSA, and the cell pellet was suspended in 400 μL of PBS. The fluorescence of individual cells was analysed with a FACS Calibur flow cytometer. 20.000 cells were measured for each experimental condition. The mean fluorescence of a sample was obtained by subtracting the autofluorescence of cells from the measured mean fluorescence of cells in the presence of the peptide.

CN(C)c1ccc(/N=N/c2ccc(C(=O)N[C@@H](CCCNC(=N)N)C(=O)N[C@@H](CCCNC(=N)N)C(=O)N[C@@H](CCCNC(=N)N)C(=O)N[C@@H](CCCNC(=N)N)C(=O)N[C@@H](CCCNC(=N)N)C(=O)N[C@@H](CCCNC(=N)N)C(=O)N[C@@H](CCCCNC(=O)c3ccc4c(c3)C(=O)OC43c4ccc(O)cc4Oc4cc(O)ccc43)C(N)=O)cc2)cc1 [Dabcyl–Arg6–Lys(Cf)–NH2] (X1-RRRRRRK(5FAM)-NH2)
Cytotoxic effect on CHO-K1 cells (CHO-K1 cells [1]): no cytotoxic effect | 4 °C/37 °C (Flow cyto.) (CHO-K1 cells [2]; [peptide] 1 μM): 0.14 | 4 °C/37 °C (Flow cyto.) (CHO-K1 cells [2]; [peptide] 2.5 μM): 0.04 | 4 °C/37 °C (Flow cyto.) (CHO-K1 cells [2]; [peptide] 5 μM): 0.05 | 4 °C/37 °C (Flow cyto.) (CHO-K1 cells [2]; [peptide] 10 μM): 0.04
